The text below walks through data of US20020049250A1, “PPAR receptor activator compounds for treating cutaneous disorders/afflictions” (priority 1999, published 2002).

What all share (assay type): cell-based
For one test, the target named is T1, PPAR-γ (Homo sapiens, UniProt P37231).
T1 construct: expressed in transfected cells; host or cells: HeLa cells
T1 sequence (P37231 1-505): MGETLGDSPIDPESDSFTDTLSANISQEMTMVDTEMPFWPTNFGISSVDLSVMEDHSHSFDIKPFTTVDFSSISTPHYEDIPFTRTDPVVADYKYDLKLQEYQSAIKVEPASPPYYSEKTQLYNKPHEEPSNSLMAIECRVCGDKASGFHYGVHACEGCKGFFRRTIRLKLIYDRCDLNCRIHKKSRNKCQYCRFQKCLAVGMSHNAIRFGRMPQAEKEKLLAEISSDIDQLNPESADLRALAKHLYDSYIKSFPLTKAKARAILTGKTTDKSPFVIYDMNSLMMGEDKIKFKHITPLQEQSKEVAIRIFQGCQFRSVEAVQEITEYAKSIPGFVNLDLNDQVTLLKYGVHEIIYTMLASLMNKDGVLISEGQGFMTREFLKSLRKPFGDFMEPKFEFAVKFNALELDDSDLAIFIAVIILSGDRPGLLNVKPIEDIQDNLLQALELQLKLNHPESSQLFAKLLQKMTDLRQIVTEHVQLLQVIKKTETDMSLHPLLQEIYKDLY
As to the kind of experiment: PPAR-type receptor transactivation test (luciferase reporter), PPAR-γ. The note with it: for Emax: HeLa, 24 h, read-out: % activation γ; for AC50 / % activation γ: cotransfected HeLa cells treated 24 hours; for AC50: luciferase, concentration giving 50% of the activity of reference molecule; for % activation γ: luciferase activity, relative to reference molecule Reference 2. As for the experimental part:
(§1) This activity is determined with the aid of a reporter enzyme (luciferase) for activation due to the compound via one of the PPAR receptors.
(§2) The biological tests carried out correspond to those described above. […] Thus, the activating power via PPAR-α, PPAR-γ or PPAR-δ of molecules may be evaluated with a transactivation test in which HeLa cells were cotransfected with an expression vector encoding these receptors and a reporter plasmid containing a PPRE response element cloned upstream of part of an SV40 virus promoter and of the luciferase gene. The cotransfected cells were treated for 24 hours with the molecules to be tested and the luciferase activity was determined by luminescence.

The target of the next test is T2, PPAR-β (Homo sapiens, UniProt Q03181).
T2 construct: expressed in transfected cells; host or cells: HeLa cells
T2 sequence (Q03181 1-441): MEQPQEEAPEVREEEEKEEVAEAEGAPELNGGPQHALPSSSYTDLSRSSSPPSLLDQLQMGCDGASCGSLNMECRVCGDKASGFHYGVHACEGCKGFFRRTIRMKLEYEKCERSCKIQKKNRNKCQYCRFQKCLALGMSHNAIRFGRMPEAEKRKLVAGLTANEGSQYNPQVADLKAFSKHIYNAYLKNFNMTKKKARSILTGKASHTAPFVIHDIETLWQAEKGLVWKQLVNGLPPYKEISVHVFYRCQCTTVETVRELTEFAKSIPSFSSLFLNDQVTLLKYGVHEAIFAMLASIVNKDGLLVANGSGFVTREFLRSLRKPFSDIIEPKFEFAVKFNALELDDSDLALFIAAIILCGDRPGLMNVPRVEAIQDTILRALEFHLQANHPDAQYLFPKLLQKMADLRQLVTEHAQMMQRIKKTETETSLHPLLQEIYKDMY
Put plainly: PPAR-type receptor transactivation test (luciferase reporter), PPAR-β. The note with it: for Emax: HeLa, 24 h, read-out: % activation β; for AC50 / % activation β: cotransfected HeLa cells treated 24 hours; for AC50: luciferase, concentration giving 50% of the activity of reference molecule; for % activation β: luciferase activity, relative to reference molecule Reference 2. As for the experimental part:
as §1, §2
For orientation: In a reporter assay the amount or activity of a reporter protein is the signal.

The target in a further test is T3, PPAR-α (Homo sapiens, UniProt Q07869).
T3 construct: expressed in transfected cells; host or cells: HeLa cells
T3 sequence (Q07869 1-468): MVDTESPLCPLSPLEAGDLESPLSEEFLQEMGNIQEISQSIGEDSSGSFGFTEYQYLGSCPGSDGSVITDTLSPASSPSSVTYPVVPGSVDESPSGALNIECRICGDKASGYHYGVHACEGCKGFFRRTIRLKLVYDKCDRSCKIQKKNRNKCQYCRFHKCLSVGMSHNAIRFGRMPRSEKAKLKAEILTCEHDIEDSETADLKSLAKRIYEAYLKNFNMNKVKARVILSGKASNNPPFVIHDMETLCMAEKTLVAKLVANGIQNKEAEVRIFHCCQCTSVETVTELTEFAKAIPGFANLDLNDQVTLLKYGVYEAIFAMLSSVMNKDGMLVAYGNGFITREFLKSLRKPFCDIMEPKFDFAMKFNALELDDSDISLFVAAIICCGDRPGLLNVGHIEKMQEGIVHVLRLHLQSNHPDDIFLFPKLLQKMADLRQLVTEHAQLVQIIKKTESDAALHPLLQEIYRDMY
As to the kind of experiment: PPAR-type receptor transactivation test (luciferase reporter), PPAR-α. The note with it: for Emax: HeLa, 24 h, read-out: % activation α; for AC50 / % activation α: cotransfected HeLa cells treated 24 hours; for AC50: luciferase, concentration giving 50% of the activity of reference molecule; for % activation α: luciferase activity, relative to reference molecule Reference 1. Here is the method: as §1, §2

Turning to `CCCCOC(c1ccc2c(c1)C(C)(C)CCC2(C)C)c1ccc2cc(C(=O)O)ccc2c1` (stereo not shown) [Comparative Example 1, 6-[butoxy(5,5,8,8-tetramethyl-5,6,7,8-tetrahydronaphthalen-2-yl)methyl]naphthalene-2-carboxylic acid], the Emax at PPAR-γ came to 7%; on PPAR-β, 28%; at PPAR-α, 0%.

Regarding `COc1ccc(C(O)c2ccc(C(=O)O)cc2)cc1C12CC3CC(CC(C3)C1)C2` (stereo not shown) [Comparative Example 6, 4-[(3-adamantan-1-yl-4-methoxyphenyl)hydroxymethyl]benzoic acid], the Emax at PPAR-γ turned out to be 7%; at PPAR-β, 16%; at PPAR-α it was 4%.

In the case of `COc1cc(C(=O)c2ccc3cc(C(=O)O)ccc3c2)ccc1C12CC3CC(CC(C3)C1)C2` [compound 5, 6-(4-adamantan-1-yl-3-methoxybenzoyl)naphthalene-2-carboxylic acid], the Emax on PPAR-γ was found to be 3%; on PPAR-β it was 8%; on PPAR-α, 6%.

One may read the AC50 as the midpoint of the concentration-response curve, whichever way the signal moves. A low value points to activity at low concentration. `CC1(C)CCc2cc(C(=O)c3ccc4cc(C(=O)O)ccc4c3)ccc2O1` [Compound 2, 6-(2,2-dimethylchroman-6-carbonyl)naphthalene-2-carboxylic acid]: the Emax on PPAR-γ was found to be 190%; at PPAR-β, 280%; on PPAR-α, 48%. In addition, the AC50 was 1500 nM on PPAR-γ, 700 nM on PPAR-β and 900 nM at PPAR-α.

With `O=C(O)c1ccc2cc(C(=O)c3ccc4c(c3)CCCC4)ccc2c1` [Compound 4, 6-(5,6,7,8-tetrahydronaphthalene-2-carbonyl)naphthalene-2-carboxylic acid], the Emax on PPAR-γ was found to be 174%; on PPAR-β, 291%; on PPAR-α, 40%. The AC50 on PPAR-γ was 800 nM; at PPAR-β, 500 nM; at PPAR-α, 2000 nM.

For “6-(2,4-diisopropylbenzoyl)napthalene-2-carboxylic acid [compound 3]”, the “% activation γ” value on PPAR-γ amounted to 3%. In addition, the “% activation β” value on PPAR-β was found to be 19%. In addition, at PPAR-α, the “% activation α” value is on record as 6%.

In the case of `CC1(C)CCOc2ccc(C(=O)c3ccc4cc(C(=O)O)ccc4c3)cc21` [Compound 5, 6-(4,4-dimethylchroman-6-carbonyl)naphthalene-2-carboxylic acid], the Emax on PPAR-γ is 36%; at PPAR-β, 92%; at PPAR-α, 16%.

`Cc1cccc(Nc2cc(Cl)nc(SCC(=O)O)n2)c1C` [Reference 1, [4-chloro-6-(2,3-dimethylphenylamino)pyrimidin-2-ylsulphanyl]acetic acid]: at PPAR-α, the “% activation α” value was 100%.

As to `CC(C)(C)c1ccc(C(=O)c2ccc3cc(C(=O)O)ccc3c2)cc1` [Compound 3, 6-(4-tert-butylbenzoyl)naphthalene-2-carboxylic acid], the Emax on PPAR-γ was 148%; on PPAR-β, 277%; on PPAR-α, 63%. Also, the AC50 on PPAR-γ stood at 360 nM; at PPAR-β, 300 nM; at PPAR-α it was 1000 nM.

On to “C-(6-carboxynaphthalen-2-yl)-C-(5,5,8,8-tetramethyl-5,6,7,8-tetrahydronaphthalen-2-yl)methylammonium [compound 2]”, for which, on PPAR-γ, the “% activation γ” value is recorded as 13%. Besides, at PPAR-β, the “% activation β” value worked out at 1%. Besides, the “% activation α” value at PPAR-α is reported as 1%.

On to `COc1ccc(C(=O)c2ccc3cc(C(=O)O)ccc3c2)cc1-c1ccccc1` [Comparative Example 4, 6-(6-methoxybiphenyl-3-carbonyl)napthalene-2-carboxylic acid], for which the “% activation γ” value at PPAR-γ was determined as 2%. For the same molecule, the “% activation β” value on PPAR-β is given as 23%. Also, at PPAR-α, the “% activation α” value is reported as 6%.

With `COc1ccc(C(=O)c2ccc(C(=O)O)cc2)cc1C12CC3CC(CC(C3)C1)C2` [compound 7, 4-(3-adamantan-1-yl-4-methoxybenzoyl)benzoic acid], the Emax on PPAR-γ was 0%; on PPAR-β, 23%; on PPAR-α, 0%.
